Assay results reported in publication PMC8242467 (Cell Reports, 2021).
Counter-ions that a name gives are not always drawn.

Molecular target: T1, mitochondrial calcium uniporter (MCU) (Homo sapiens, UniProt Q8NE86)
T1 sequence (Q8NE86 51-351): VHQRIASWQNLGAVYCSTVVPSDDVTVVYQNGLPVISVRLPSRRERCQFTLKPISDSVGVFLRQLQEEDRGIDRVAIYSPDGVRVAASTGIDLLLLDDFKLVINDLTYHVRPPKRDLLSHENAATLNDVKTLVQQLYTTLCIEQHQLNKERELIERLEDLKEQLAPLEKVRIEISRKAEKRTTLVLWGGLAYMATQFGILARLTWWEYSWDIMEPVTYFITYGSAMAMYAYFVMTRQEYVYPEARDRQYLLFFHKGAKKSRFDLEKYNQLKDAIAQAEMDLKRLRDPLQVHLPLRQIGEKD
Assay: mitochondrial Ca2+ uptake in permeabilized HeLa cells
Format: cell-based

EC50: 86.9 µM
Structure (SMILES): CCC(C)(C)c1ccc(CC(C)CN2C[C@@H](C)O[C@@H](C)C2)cc1 (stereo partly drawn) [amorolfine, (2R,6S)-2,6-dimethyl-4-[2-methyl-3-[4-(2-methylbutan-2-yl)phenyl]propyl]morpholine;hydrochloride]
